In ChEMBL document CHEMBL1137952, “Fertilin beta peptidic liposomes inhibit fertilization by steric blockage” (Bioorg Med Chem Lett, 2004) one finds IC50 and Max inhibition data, which are given here for four compounds.

Assay [1] has as its system Liposome. The experiment in a line: Inhibition of fertilization by POPC (40 or 400 nm), measured by average number of sperm fused / egg (FI); No inhibition uM. It counts as functional, Mus musculus.
For assay [2], the system named is Liposome. The experiment in a line: Inhibition of fertilization by POPC (40 or 400 nm), measured by number of zona-free eggs fertilized (FR); No inhibition. It is filed as functional, subcellular, Mus musculus.
In assay [3] the test system is Liposome. Kind of assay: Inhibition of fertilization by POPC (40 or 400 nm), measured by number of zona-free eggs fertilized (FR); No inhibition uM. It is filed as functional, subcellular, Mus musculus.
Assay [4] has as its system Liposome. The experiment in a line: Maximal inhibition of fertilization by POPC (40 or 400 nm); No inhibition. The conditions noted are these: Mus musculus. It is filed as functional.
The test system of assay [5] is Liposome. The experiment in a line: Inhibition of fertilization by fertilin beta peptide, measured by average number of sperm fused / egg (FI). It is filed as functional, Mus musculus.
The subject of assay [6] is Liposome. Kind of assay: Inhibition of fertilization by fertilin beta peptide, measured by number of zona-free eggs fertilized (FR). It is filed as functional, subcellular, Mus musculus.
Assay [7] has as its system Liposome. Kind of assay: Maximal inhibition of fertilization by fertilin beta peptide. It counts as functional, subcellular. The conditions noted are these: Mus musculus.
Assay [8] concerns Liposome. Kind of assay: Inhibition of fertilization by fertilin beta peptide (0.013 mol%) with 40 nm liposome, measured by number of zona-free eggs fertilized (FR); No inhibition up to 125 nm peptide. It is filed as functional, Mus musculus.
Assay [9] relates to Liposome. The experiment in a line: Inhibition of fertilization by fertilin beta peptide (0.1 mol%) with 40 nm liposome, measured by average number of sperm fused per egg (FI). It is filed as functional, subcellular, Mus musculus.
In assay [10] the test system is Liposome. Kind of assay: Inhibition of fertilization by fertilin beta peptide (0.1 mol%) with 40 nm liposome, measured by number of zona-free eggs fertilized (FR). It is filed as functional, subcellular, Mus musculus.
The test system of assay [11] is Liposome. The experiment in a line: Inhibition of fertilization by fertilin beta peptide (0.5 mol%) with 40 nm liposome, measured by average number of sperm fused per egg (FI). It is filed as functional, subcellular, Mus musculus.
Assay [12] relates to Liposome. The experiment in a line: Inhibition of fertilization by fertilin beta peptide (0.5 mol%) with 40 nm liposome, measured by number of zona-free eggs fertilized (FR). It counts as functional, subcellular, Mus musculus.
Assay [13] concerns Liposome. The experiment in a line: Inhibition of fertilization by fertilin beta peptide (0.5 mol%) with 400 nm liposome, measured by average number of sperm fused per egg (FI). It is filed as functional, subcellular, Mus musculus.
Assay [14] concerns Liposome. Kind of assay: Inhibition of fertilization by fertilin beta peptide (0.013 mol%) with 40 nm liposome, measured by average number of sperm fused per egg (FI); No inhibition up to 125 nm peptide. It is filed as functional, Mus musculus.
In assay [15] the test system is Liposome. Kind of assay: Inhibition of fertilization by fertilin beta peptide (0.013 mol%) with 40 nm liposome, measured by number of zona-free eggs fertilized (FR); No inhibition. It counts as functional, subcellular, Mus musculus.
The test system of assay [16] is Liposome. Kind of assay: Inhibition of fertilization by fertilin beta peptide (0.5 mol%) with 400 nm liposome, measured by number of zona-free eggs fertilized (FR). It counts as functional, subcellular, Mus musculus.
Assay [17] concerns Liposome. The experiment in a line: Inhibition of fertilization by fertilin beta peptide (1 mol%) with 40 nm liposome, measured by average number of sperm fused per egg (FI). It counts as functional, subcellular, Mus musculus.
Assay [18] deals with Liposome. The experiment in a line: Inhibition of fertilization by fertilin beta peptide (1 mol%) with 40 nm liposome, measured by number of zona-free eggs fertilized (FR). It is filed as functional, subcellular, Mus musculus.
Assay [19] has as its system Liposome. The experiment in a line: Inhibition of fertilization by fertilin beta peptide (5 mol%) with 40 nm liposome, measured by average number of sperm fused per egg (FI). It counts as functional, subcellular, Mus musculus.
Assay [20] has as its system Liposome. Kind of assay: Inhibition of fertilization by fertilin beta peptide (5 mol%) with 40 nm liposome, measured by number of zona-free eggs fertilized (FR). It counts as functional, subcellular, Mus musculus.
Assay [21] concerns Liposome. The experiment in a line: Maximal inhibition of fertilization by fertilin beta peptide (0.5 mol%) with 40 nm liposome. As to conditions: Mus musculus. It is filed as functional, subcellular.
Assay [22] relates to Liposome. Kind of assay: Maximal inhibition of fertilization by fertilin beta peptide (1 mol%) with 40 nm liposome. It counts as functional, subcellular. As to conditions: Mus musculus.
In assay [23] the test system is Liposome. Kind of assay: Inhibition of fertilization by fertilin beta peptide (1 mol%) with 40 nm liposome, measured by average number of sperm fused /egg (FI); No inhibition uM peptide. It is filed as functional, subcellular, Mus musculus.
Assay [24] relates to Liposome. The experiment in a line: Inhibition of fertilization by fertilin beta peptide (1 mol%) with 40 nm liposome, measured by number of zona-free eggs fertilized (FR); No inhibition. It is filed as functional, subcellular, Mus musculus.
Assay [25] relates to Liposome. The experiment in a line: Inhibition of fertilization by fertilin beta peptide (1 mol%) with 40 nm liposome, measured by number of zona-free eggs fertilized (FR); No inhibition uM peptide. It counts as functional, subcellular, Mus musculus.
Assay [26] relates to Liposome. The experiment in a line: Maximal inhibition of fertilization by fertilin beta peptide (1 mol%) with 40 nm liposome; No inhibition. It counts as functional, subcellular. As to conditions: Mus musculus.

Active and inactive are the calls of the source. No cut-off for these calls is given here. Non-standard residues stand in square brackets, D forms with d. Residues, ends and D or L forms follow the SMILES beside them. ξ: configuration not given here. *: point of attachment. Myristoyl = CCCCCCCCCCCCCC(=O)*; Dap = NC[C@H](N)C(=O)O; ξDap = NCC(N)C(=O)O; GABA = NCCCC(=O)O

Turning to `CCCCCCCC/C=C\CCCCCCCC(=O)OC(COC(=O)CCCCCCCCCCCCCCC)COP(=O)([O-])OCC[N+](C)(C)C` (stereo not given), the IC50 entry in the assay with Liposome [1], with Liposome [2] and in the assay with Liposome [3] was “Not Active” each time. In the assay with Liposome [4], the Max inhibition entry is “inactive”.

Consider `CC(=O)NC[C@H](NC(C)=O)C(=O)NCCCC(=O)N[C@@H](C)C(=O)N[C@@H](CCC(N)=O)C(=O)N[C@@H](CC(=O)O)C(=O)N[C@@H](CCC(=O)O)C(=O)N[C@@H](CS)C(=O)N[C@@H](CC(=O)O)C(=O)N[C@H](C(=O)N[C@H](C(=O)N[C@@H](CCC(=O)O)C(=O)N[C@@H](Cc1ccc(O)cc1)C(N)=O)[C@@H](C)O)C(C)C` (Ac-[Dap](Ac)[GABA]AQDECDVTEY-NH2), for which the results for the IC50 in the assay on Liposome [5] and in the assay with Liposome [6] were 524000 nM and 500000 nM, respectively. This compound gave a Max inhibition in the assay with Liposome [7] of 71%.

For `CCCCCCCCCCCCCC(=O)NCC(NC(=O)CCCCCCCCCCCCC)C(=O)NCCCC(=O)N[C@@H](C)C(=O)N[C@@H](CCC(N)=O)C(=O)N[C@@H](CC(=O)O)C(=O)N[C@@H](CCC(=O)O)C(=O)N[C@@H](CS)C(=O)N[C@@H](CC(=O)O)C(=O)N[C@H](C(=O)N[C@H](C(=O)N[C@@H](CCC(=O)O)C(=O)N[C@@H](Cc1ccc(O)cc1)C(N)=O)[C@@H](C)O)C(C)C` (stereo not given in full) (Myristoyl-[ξDap](Myristoyl)[GABA]AQDECDVTEY-NH2), the IC50 entry with Liposome [8] was “Not Active”; in the assay with Liposome [9], 500 nM; in the assay with Liposome [10], 500 nM; with Liposome [11], 500 nM; in the assay on Liposome [12] it was 2800000000000 liposomes ml-1; with Liposome [12] (read-out: IC50), 340 nM. The IC50 in the assay on Liposome [13] is 920 nM; with Liposome [14] it was “Not Active”; with Liposome [15], “Not Active”; with Liposome [16], 59000000000 liposomes ml-1; in the assay on Liposome [16] (read-out: IC50), 750 nM; in the assay on Liposome [17], 2400 nM. Besides, the IC50 with Liposome [18] amounted to 11000000000000 liposomes ml-1; in the assay with Liposome [18] (read-out: IC50) it was 2500 nM; with Liposome [19], 5000 nM; in the assay with Liposome [20], 4200000000000 liposomes ml-1; with Liposome [20] (read-out: IC50) it was 5000 nM. In addition, the Max inhibition in the assay on Liposome [21] worked out at 93%; in the assay on Liposome [22], 97%.

Regarding `CCCCCCCCCCCCCC(=O)NCC(NC(=O)CCCCCCCCCCCCC)C(=O)NCCCC(=O)N[C@@H](CC(=O)O)C(=O)N[C@@H](Cc1ccc(O)cc1)C(=O)N[C@@H](CCC(=O)O)C(=O)N[C@H](C(=O)N[C@@H](CCC(=O)O)C(=O)N[C@@H](CCC(N)=O)C(=O)N[C@@H](C)C(=O)N[C@@H](CS)C(=O)N[C@H](C(=O)N[C@@H](CC(N)=O)C(=O)O)[C@@H](C)O)C(C)C` (stereo not given in full) (Myristoyl-[ξDap](Myristoyl)[GABA]DYEVEQACTN-OH), the IC50 result with Liposome [23], in the assay on Liposome [24] and in the assay on Liposome [25] was “Not Active” in each case. Moreover, in the assay on Liposome [26], the Max inhibition result is “inactive”.
